Entries after “also recorded” stand apart in the source; their conditions may differ. Where two headings read alike, the source gives them in different places.
Tests used:
mouse model of NASH = mouse model of NASH and fibrosis induced by streptozocin and high fat diet; assay type: in vivo, C59BL/6J mice; conditions: for NAS score: alone or in combination; for liver enzyme AST / liver enzyme ALP: OCA
Experimental: We have utilized a well validated mice model in which the NASH and fibrosis was induced by sequential induction of diabetes mellitus and a high fat diet (14). On day 2, C59BL/6J mice were injected with streptozocin, then treated with high fat diet from week 4 until week 9. The intervention treatment started from week 5 until week 9. On week 9, these mice were euthanized.
NAS scores were determined according to the consensus by Nonalcoholic Steatohepatitis Clinical Research Network (13)
Fibrosis scores were determined according to the consensus by Nonalcoholic Steatohepatitis Clinical Research Network (13).

[1] = recent studies; cited from earlier work
[2] = HIV patients with HCV infection; cited from earlier work
CCR5 = conditions: animal model; cited from earlier work
[3] = cited from earlier work
[4] = cited from earlier work; remark: listed apart in the source
[5] = cited from earlier work; remark: listed apart in the source
[6] = cited from earlier work; for pruritus: placebo 38%
[7] = FIG. 7B, MK-0812, alone or together

CO[C@@H]1COCC[C@@H]1N[C@@H]1CC[C@@](C(=O)N2CCc3ncc(C(F)(F)F)cc3C2)(C(C)C)C1 [MK-0812]
NAS score (mouse model of NASH; FIG. 1B, OCA and MK-0812 (10 mg twice daily)): modest reduction of NAS scores; also recorded: little effect | fibrosis evidenced by staining of collagen (liver histology) (mouse model of NASH; FIG. 2B, OCA and MK-0812): reduction of fibrosis | results in the NASH model when a CCR2 antagonist was used instead of MVC (mouse model of NASH; FIG. 3B to 7B): Comparable results | fibrosis score (mouse model of NASH; FIG. 3B, OCA and MK-0812, combination with half dose OCA and MK-0812 10 mg twice daily): reduction of fibrosis score | liver inflammation (mouse model of NASH; FIG. 4B, OCA and MK-0812): reduction of liver inflammation | hepatocyte ballooning score (mouse model of NASH; FIG. 5B, OCA and MK-0812): reduction of hepatocyte ballooning score | steatosis (mouse model of NASH; FIG. 6B, full dose OCA, MK-0812 alone): no apparent effect on steatosis | liver enzyme AST (mouse model of NASH; [7]): not observed

CCCCOCCOc1ccc(-c2ccc3c(c2)/C=C(/C(=O)Nc2ccc([S@@+]([O-])Cc4cncn4CCC)cc2)CCCN3CC(C)C)cc1 [cenicriviroc]
effect on NASH [1]: marginal effect on NASH | effect on fibrosis [1]: relatively more significant effect on fibrosis

maraviroc [MVC]
liver fibrosis [2]: Reducing liver fibrosis has been observed | NAS score (mouse model of NASH; FIG. 1A, maraviroc 45 mg/kg once daily orally, OCA 30 mg/kg once daily, 4 wks): modest reduction of NAS scores | NAS score (mouse model of NASH; FIG. 1A, maraviroc 45 mg/kg once daily orally, OCA 30 mg/kg once daily, 4 wks, listed as maravoric): limited effect on the NAS score | fibrosis evidenced by staining of collagen (liver histology) (mouse model of NASH; FIG. 2A, maraviroc 45 mg/kg, OCA 30 mg/kg once daily, 4 wks): reduction of fibrosis | fibrosis evidenced by staining of collagen (liver histology) (mouse model of NASH; FIG. 2A, maraviroc 45 mg/kg, OCA 30 mg/kg once daily, 4 wks, listed as maraviroc): effective in reducing fibrosis; also recorded: more effective than OCA in reducing fibrosis | fibrosis score (mouse model of NASH; FIG. 3A, maraviroc 45 mg/kg, OCA 30 mg/kg once daily, 4 wks): reduction of fibrosis score | liver inflammation (mouse model of NASH; FIG. 4A, maraviroc 45 mg/kg, OCA 30 mg/kg once daily, 4 wks): reduction of liver inflammation | hepatocyte ballooning score (mouse model of NASH; FIG. 5A, maraviroc 45 mg/kg, OCA 30 mg/kg once daily, 4 wks): reduction of the hepatocyte ballooning score | steatosis (mouse model of NASH; FIG. 6A, maraviroc 45 mg/kg, OCA 30 mg/kg once daily, 4 wks): marginal effect on steatosis | NAS score and fibrosis (CCR5): effective in an animal model for reducing NAS score and fibrosis

CC[C@H]1[C@@H](O)[C@@H]2[C@H](CC[C@]3(C)[C@@H]([C@H](C)CCC(=O)O)CC[C@@H]23)[C@@]2(C)CC[C@@H](O)C[C@@H]12 [OCA, 6 α-ethyl-chemodeoxycholic acid]
bile duct histology ([3]; 26-week oral, rats): bile duct hyperplasia | clinical chemistry parameters ([3]; 26-week oral, rats): increases in ALT, AST and ALP | liver weight ([3]; 26-week oral, rats): increased liver weight | safety margin relative to recommended human dose ([3]; rat, in vivo): 2.3 fold | liver enzyme AST (mouse model of NASH; FIG. 7A, MVC, alone or together): elevation in AST and ALP liver enzymes; also recorded: elevation of the liver enzyme AST | liver enzyme AST (mouse model of NASH; [7]): elevation of the liver enzyme AST | liver enzyme ALP (mouse model of NASH; FIG. 8A, MVC, alone or together): elevation in AST and ALP liver enzymes; also recorded: elevation of the liver enzyme ALP | liver enzyme ALP (mouse model of NASH; FIG. 8B, MK-0812): elevation of the liver enzyme ALP | exposure-adjusted incidence for all serious and otherwise clinically significant liver-related adverse reactions and isolated elevations in liver biochemical test ([4]; 10 mg group, placebo 2.4): 5.2 per 100 patient exposure years (PEY) | exposure-adjusted incidence for all serious and otherwise clinically significant liver-related adverse reactions and isolated elevations in liver biochemical test ([4]; 25 mg group): 19.8% | exposure-adjusted incidence for all serious and otherwise clinically significant liver-related adverse reactions and isolated elevations in liver biochemical test ([4]; 50 mg group): 54.5% | ALT levels ([5]; 9-month oral, dogs): elevated ALT levels | clinical signs of toxicity that could be associated with liver function ([5]; dog, in vivo, po): yellow discoloration of skin, mucous membrane, and eyes | pruritus ([6]; 10 mg once daily): 56% | HDL ([6]; dose related): dose related reduction in HDL; also recorded: reduction of HDL | severe pruritus ([6]; patients receiving OCA): 19-23% | frequency of pruritus ([6]; reported frequency): up to 80% | pruritus ([6]; titration regimen): 70%
